# Data as given in patent US20070078170A1, “Process for the preparation of pioglitazone” (priority 2003, published 2007).
# How the values were obtained:
# [1] = Solubility studies in USPII dissolution apparatus; type: physicochemical
# Protocol: Solubility experiments were performed in USPII dissolution apparatus operated at 150 r.p.m., at 25° C., in the following media: 250 ml of 0.01N HC1-0.3M KCI (pH 2)
# Procedure: 625 mg of pioglitazone hydrochloride was added in 250 ml of media and solubility was determined at given time points.
# [2] = Clarity of solution in acidic media on standing; type: physicochemical
# [3] = 1.5 hrs, 625 mg in 250 ml of 0.01N HCl-0.3M KCl (pH 2), 25° C., 150 r.p.m., average of six unit data, Hydrochloride
# [4] = 5 hrs, 625 mg in 250 ml of 0.01N HCl-0.3M KCl (pH 2), 25° C., 150 r.p.m., average of six unit data, Hydrochloride
# [5] = 20 hrs, 625 mg in 250 ml of 0.01N HCl-0.3M KCl (pH 2), 25° C., 150 r.p.m., average of six unit data, Hydrochloride
# [6] = 0.01N HCl-0.3M KCl media (pH 2)
substance,measurement,setting,value
Pioglitazone Hydrochloride [Example 4],"Observation of the media (turbidity, precipitation)","[1]; 0.01N HCl-0.3M KCl (pH 2), later time points",the media starts becoming turbid and shows drug precipitation on later time points
same,Solubility,[1]; [3],2265 µg/mL
same,Solubility,[1]; [4],722 µg/mL
same,Solubility,[1]; [5],473 µg/mL
Pioglitazone Hydrochloride [Example 5],Solubility,[1]; [6],more than 2.4 mg/ml
same,Standing time without precipitation from the solution,[1]; [6],more than 5 hours
same,Solubility,"[1]; 30 min, 625 mg in 250 ml of 0.01N HCl-0.3M KCl (pH 2), 25° C., 150 r.p.m., average of six unit data",2719 µg/mL
same,Solubility,[1]; [3],2587 µg/mL
same,Solubility,[1]; [4],2766 µg/mL
same,Solubility,[1]; [5],2747 µg/mL
pioglitazone hydrochloride [listing 1 of 2 here],Standing time over which the solution remains clear,[2],≥ 20 h
pioglitazone hydrochloride [listing 2 of 2 here],Standing time after which the solution becomes turbid and the drug precipitates,[2]; initially clear solution,4 to 5 h
